# According to patent publication US8748370B2, “Peptide derivatives for treatment, prevention or alleviation of a condition associated with bone loss or low bone density or to inhibit osteoclast differentiation and stimulation” (Strongbone AB, priority 2009, dated 2014):
# Square brackets hold non-standard residues; d marks the D form. Peptide text beside a SMILES is read from it. * marks the point of attachment. Agmatine = N=C(N)NCCCCN*; Cbz = O=C(OCc1ccccc1)*; azaGly = NNC(=O)O; BrAc = O=C(CBr)*; ClAc = O=C(CCl)*
# T1: Papain (Carica papaya, UniProt P00784)
# T1 sequence (P00784 134-345): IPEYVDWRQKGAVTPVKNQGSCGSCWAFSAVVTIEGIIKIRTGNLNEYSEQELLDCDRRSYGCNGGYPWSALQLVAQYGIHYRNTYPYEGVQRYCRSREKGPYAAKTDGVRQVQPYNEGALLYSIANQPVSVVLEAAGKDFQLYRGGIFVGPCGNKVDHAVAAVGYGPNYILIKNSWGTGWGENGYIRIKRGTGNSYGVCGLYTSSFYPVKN
# T2: Cath K (Homo sapiens, UniProt P43235)
# T2 sequence (P43235 115-329): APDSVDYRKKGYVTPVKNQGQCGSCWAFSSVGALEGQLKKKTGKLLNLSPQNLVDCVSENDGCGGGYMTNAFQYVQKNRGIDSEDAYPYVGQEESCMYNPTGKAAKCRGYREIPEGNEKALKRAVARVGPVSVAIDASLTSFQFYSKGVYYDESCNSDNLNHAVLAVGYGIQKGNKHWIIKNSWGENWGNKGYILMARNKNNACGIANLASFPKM
# How the values were obtained:
# Papain = target: T1, Papain; assay: Papain inhibition (Ki); type: biochemical
# Cath K = target: T2, Cath K; assay: Cathepsin K inhibition (Ki); type: biochemical
# Cath B = Cath B (Homo sapiens, UniProt P07858); assay: Cathepsin B inhibition (Ki); type: biochemical
# [1] = system: purified bone marrow macrophages; assay: Osteoclast formation in bone marrow macrophage cultures stimulated with M-CSF and RANKL (TRAP+ multinucleated osteoclasts); type: cell-based; details: for Osteoclast formation (100% = M-CSF + RANKL): purified bone marrow macrophages stimulated with M-CSF and RANKL, trap+ multinucleated osteoclasts
# Description: Highly purified BMMs were isolated according to Takeshita et al. (2000).
# For osteoclastogenesis experiments, BMMs were seeded either on 0.8 cm^2 glass chamber slides or 0.32 cm^2 96-well plates at a density of 10^4 cells/cm^2 in a-MEM/10% FBS containing either 100 ng/ml M-CSF (controls) or 100 ng/ml M-CSF C50 ng/ml RANKL, with and without test compounds. After 4-5 days, with a change of medium after 3 days, the cultures were harvested and the cells fixed with acetone in citrate buffer/3% formaldehyde and subsequently stained for TRAP. The TRAP-positive cells with three or more nuclei were considered osteoclasts, and the number of multinucleated osteoclasts was counted (TRAP^+-MuOCL). […] Osteoclast formation caused by M-CSF and RANKL was abolished by OPG
# spleen cells = assay: Osteoclast formation in spleen cell cultures (TRAP+ multinucleated osteoclasts); type: cell-based, mice; details: for Osteoclast formation in the presence of the substance: without M-CSF/RANKL stimulation
# Description: Cells were obtained from spleens of 5- to 9-week-old mice. The spleens were dissected free of adhering tissues, and cells were released by rubbing the spleens against the bottom of a Petri dish, in which grooves had been made by a scalpel. Erythrocytes were lysed in red blood cell lysis buffer (0.16 MNH4Cl, 0.17 M Tris, pH7.65) and the remaining cells were seeded, at a cell density of 10^6 cells/cm2, on plastic coverslips placed in 24-well plates. The cells were cultured in 0.5 ml a-minimal essential medium (a-MEM) supplemented with 10% fetal bovine serum (FBS), L-glutamine (0.7 mM), 100 U/ml benzylpenicillin, […] and 100 […] sulphate. Cells were allowed to settle overnight in complete medium and thereafter the medium was changed and the experiment started. Osteoclast precursor cells were induced to proliferate and differentiate by the addition of M-CSF (25 ng/ml) and RANKL (100 ng/ml). To study the effect of the compounds on osteoclastogenesis, cells were grown in medium containing compounds at different concentrations, together with M-CSF and RANKL. Cells cultured in complete medium without M-CSF and RANKL were included in all experiments as a control. Medium was changed after 3 days. After 1-6 days, the cells were washed three times with PBS (pH 7.35) and fixed with acetone in citrate buffer/3% formaldehyde solution. Cells were then stained for tartrate-resistant acid phosphatase (TRAP) activity using the SigmaDiagnostics Acid Phosphatase Leukocyte staining kit and by following the manufacturer's instruction. Multinucleated (no. of nuclei >3), TRAP-positive cells were counted as osteoclasts (TRAPC-MuOCL).
Ki (Papain) [nM],Ki (Cath B) [nM],Ki (Cath K) [nM],Molecule,Osteoclast formation (100% = M-CSF + RANKL) ([1]; BMM #27 + #29 + #30 + #34) [%],also measured
161,14,–,"COC(=O)C1OC1C(=O)NC(C(=O)NC(CC(C)C)C(=O)NCCCCNC(=N)N)C(C)C (stereo not drawn) [A-42, MeO-Eps-Val-Leu-Agm]",0,Cath K Ki (Cath K): inactive
68,55,63,"CC(C)CC(NC(=O)C(NC(=O)C1OC1C(=O)c1ccccc1)C(C)C)C(=O)NCCCCNC(=N)N (single isomer, unassigned) [A-50]",2,–
–,–,–,"C=C1/C(=C\C=C2/CCC[C@]3(C)[C@@H]([C@H](C)CCCC(C)(C)O)CC[C@@H]23)C[C@@H](O)C[C@@H]1O [D3, 1.25(OH)2-vitamin D3, reference compound]",–,Osteoclast formation in the presence of the substance ([1]; BMM cultures): Osteoclasts were not formed; Osteoclast formation in the presence of the substance (spleen cells): No osteoclasts were formed
94,1000,13,"CC(C)CC(NC(=O)C(NC(=O)CBr)C(C)C)C(=O)NCCCCNC(=N)N (stereo not drawn) [A-12, BrAc—Val-Leu-Agm] (BrAc-Val-Leu-Agmatine; configuration not given here)",2,–
46,2,24,"CC(C)CC(NC(=O)C(NC(=O)/C=C/C(=O)c1ccccc1)C(C)C)C(=O)NCCCCNC(=N)N (stereo not drawn) [A-33, Bzac-Val-Leu-Agm]",0,–
–,–,–,"CC(C)CC(NC(=O)C(CCCNC(=N)N)NC(=O)OCc1ccccc1)C(=O)NC(CNC(=O)/C=C/c1ccccc1)C(C)C (stereo not drawn) [A-20, Z-Arg-Leu-NH—CH(iPr)—CH2—NH←Cin]",0,Papain Ki (Papain): Inactive
340,–,–,"CC(C)C[C@H](NC(=O)[C@@H](NC(=O)[C@H](Br)Cc1ccccc1)C(C)C)C(=O)NCCCCNC(=N)N [A-16, BrPpr-Val-Leu-Agm]",16,Cath K Ki (Cath K): inactive; Cath B Ki (Cath B): inactive
–,–,–,"CC(C)CC(NC(=O)CCCCNC(=N)N)C(=O)NC(CNC(=O)C(Cc1ccccc1)NC(=O)Cc1cc(=O)oc2cc(O)ccc12)C(C)C [A-107, (2S)-2-[N-(5-guanidinepentanoyl)-L-leucylamino]-1-[N-(7-hydroxy-4-coumarinylacetyl-L-phenylalanylamino)-3-methylbutane]",–,Osteoclast formation (100% = M-CSF + RANKL) ([1]; BMM #141 and #142): 0%
93,360,14,"CC(C)CC(NC(=O)C(NC(=O)CCl)C(C)C)C(=O)NCCCCNC(=N)N (stereo not drawn) [A-11, ClAc—Val-Leu-Agm] (ClAc-Val-Leu-Agmatine; configuration not given here)",1,–
1000,228,14,CC(C)CC(NC(=O)CCCCNC(=N)N)C(=O)NC(CNC(=O)/C=C/S(=O)(=O)Cc1ccccc1)C(C)C (stereo not drawn) [A-54],1,–
–,–,–,"CC(C)CC(NC(=O)/C=C/c1cccnc1)C(=O)NC(CC(C)C)C(=O)NCCCCNC(=N)N (stereo not drawn) [A-127, 3 Pac-DLeu-Leu-Agm]",–,Osteoclast formation (100% = M-CSF + RANKL) ([1]; BMM #141 and #142): 16%
–,–,–,"CC(C)CC(NC(=O)Cc1cc(=O)oc2cc(O)ccc12)C(=O)NC(CC(C)C)C(=O)NCCCCNC(=N)N [A-128, N-amidino-4-(7-hydroxy-4-coumarinacetyl-D-leucyl-L-leucylamino)butylamine]",–,Osteoclast formation (100% = M-CSF + RANKL) ([1]; BMM #141 and #142): 4%
16,0.3,99,"CC(C)CC(NC(=O)C(NC(=O)C1OC1C(=O)c1ccccc1)C(C)C)C(=O)NCCCCNC(=N)N (single isomer, unassigned) [A-47]",0,–
23,3,160,"CCC(C)C(NC(=O)/C=C/S(=O)(=O)Cc1ccccc1)C(=O)N1CCCC1C(=O)O (stereo not drawn) [M-1, Bzsa-Ile-Pro-OH]",14,–
9,–,1,"CCC(C)C(NC(=O)NNC(=O)C(CCCNC(=N)N)NC(=O)C(CC(C)C)NC(=O)C(CCCNC(=N)N)NC(=O)OCc1ccccc1)C(=O)NC(C(=O)OC)C(C)C (stereo not drawn) [Z-RLR, Z-Arg-Leu-Arg-Agly-Ile-Val-OMe] (Cbz-RLR[azaGly]IV-OMe; configuration not given here)",0,–
–,–,–,"CC(C)CC(NC(=O)C(CCCNC(=N)N)NC(=O)OCc1ccccc1)C(=O)NC(C(=O)NC(Cc1ccccc1)C(N)=O)C(C)C (stereo not drawn) [A-59, Ppa-Arg-Leu-Val-Phe-NH2] (Cbz-RLVF-NH2; configuration not given here)",0,–
–,–,–,"CC(C)CC(NC(=O)C(CCCNC(=N)N)NC(=O)OCc1ccccc1)C(=O)NC(CNC(=O)/C=C/c1ccncc1)C(C)C (stereo not drawn) [A-49, Z-Arg-Leu-NH—CH(iPr)—CH2—NH←4-Pac]",0.2,–
–,–,–,"osteoprotegerin (protein, UniProt O00300 22-401, looked up, osteoprotegerin (OPG), abolishes M-CSF/RANKL-stimulated osteoclast formation) Tumor necrosis factor …: ETFPPKYLHYDEETSHQLLCDKCPPGTYLKQHCTAKWKTVCAPCPDHYYTDSWHTSDECLYCSPVCKELQYVKQECNRTHNRVCECKEGRYLEIEFCLKHRSCPPGFGVVQAGTPERNTVCKRCPDGFFSNETSSKAPCRKHTNCSVFGLLLTQKGNATHDNICSGNSESTQKCGIDVTLCEEAFFRFAVPTKFTPNWLSVLVDNLPGTKVNAESVERIKRQHSSQEQTFQLLKLWKHQNKDQDIVKKIIQDIDLCENSVQRHIGHANLTFEQLRSLMESLPGKKVGAEDIEKTIKACKPSDQILKLLSLWRIKNGDQDTLKGLMHALKHSKTYHFPKTVTQSLKKTIRFLHSFTMYKLYQKLFLEMIGNQVQSVKISCL",–,"Effect on osteoclast formation caused by M-CSF and RANKL ([1]; BMM cultures, M-CSF and RANKL): abolished; Effect on stimulation of osteoclast formation caused by M-CSF and RANKL (spleen cells; M-CSF and RANKL): abolished"
–,–,–,"Cystatin C (protein, UniProt P01034 27-146, looked up) Cystatin-C: SSPGKPPRLVGGPMDASVEEEGVRRALDFAVGEYNKASNDMYHSRALQVVRARKQIVAGVNYFLDVELGRTTCTKTQPNLDNCPFHDQPHLKRKAFCSFQIYAVPWQGTMTLSKSTCQDA",–,Osteoclast formation (100% = M-CSF + RANKL) ([1]; BMM #141 and #142): 0%
–,–,–,"PTH (protein, UniProt P01270 32-115, looked up, Parathyroid hormone, PTH, used to show the lack of stromal cells in the cultures) Parathyroid hormone: SVSEIQLMHNLGKHLNSMERVEWLRKKLQDVHNFVALGAPLAPRDAGSQRPRKKEDNVLVESHEKSLGEADKADVNVLTKAKSQ",–,Osteoclast formation in the presence of the substance ([1]; BMM cultures): Osteoclasts were not formed; Osteoclast formation in the presence of the substance (spleen cells): No osteoclasts were formed

Molecule,Ki (Papain) [nM],Ki (Cath B) [nM],Ki (Cath K) [nM],Osteoclast formation (100% = M-CSF + RANKL) ([1]; BMM #27 + #29 + #30 + #34) [%],also measured
"CC(C)CC(NC(=O)C(NC(=O)/C=C/S(=O)(=O)Cc1ccccc1)C(C)C)C(=O)NCCCCNC(=N)N (stereo not drawn) [A-25, Bzsa-Val-Leu-Agm]",–,8.1,42.2,1,Papain Ki (Papain): Inactive
